The conditions of series [1]: 298.15 K; 101.33 kPa; Liquid; Vibrating tube method.
Series [2] in a line: refractive index (Na D-line) (dimensionless). The following applies: 298.15 K; 101.33 kPa; Liquid; Standard Abbe refractometry.

Each structure is given as a SMILES string. ± gives the expanded uncertainty stated by the source.

Usually mass density stands for the mass of a sample divided by its volume. Usually refractive index stands for a measure of how strongly the sample bends light. Take `CCCCCCCC[n+]1ccn(C)c1.F[B-](F)(F)F` [1-methyl-3-octylimidazolium tetrafluoroborate]: the mass density in series [1] is on record as 1104.42 ± 6.6 kg/m3. Besides, the refractive index in series [2] is 1.43329 ± 0.0012.
For `C1CCCCC1` [cyclohexane], in that order: 773.76 ± 0.24 kg/m3 and 1.42403 ± 0.0007.
In the same order, the values of `CCCCCC` [hexane] are 655.06 ± 0.19 kg/m3 and 1.37287 ± 0.00068.
In the same order, the values of `c1ccsc1` [thiophene] are 1058.5 ± 0.12 kg/m3 and 1.52581 ± 0.00068.

For the origin of these results see the NIST ThermoML archive (doi:10.1021/je700126z).
